# Assay results: publication PMC10010340, “The Wnt Pathway Inhibitor RXC004 Blocks Tumor Growth and Reverses Immune Evasion in Wnt Ligand–dependent Cancer Models” (Cancer Research Communications, 2022)
# Assays:
# [1] = tested on: SNU-1411 xenograft; assay: Pharmacokinetic/pharmacodynamic analysis in SNU-1411/NOD-SCID mice, 7 days; format: in vivo, mouse (NOD-SCID)
# Description: (§1) To explore dose–response effects in vivo, SNU-1411 (1 × 10^7 cells) were implanted into NOD-SCID mice subcutaneously at Axis Bioservices. Animals were randomized into the indicated groups and oral dosing of RXC004 was initiated when tumors reached approximately 200 mm^3. Tumor volume measurements were taken at day 19, n ≥9 per group. Pharmacokinetic/pharmacodynamic analysis in SNU1411/NOD-SCID mice was performed in a separate study at Axis Biosciences, with tissue and plasma extracted for assessments after 7 days of RXC004 dosing. Tumor was divided into two sections; one section snap frozen and the other processed by FFPE. RXC004 levels were determined in snap frozen tumor and blood samples by LC/MS-MS. Expression analysis of the indicated genes was performed on snap frozen tumor as described above. Serial FFPE tumor sections were stained with H&E, anti-Ki67 (Abcam #Ab15580) or the dual mucin stain Alcian-blue/periodic acid shift (AB-PAS) at Histologix. IHC images were quantified using HALO software and modules (Indica Labs). The AB-PAS images were analyzed with the area quantification module on tumor area. A classifier was trained to detect differentiated and nondifferentiated tumor areas in RXC004-treated tumors using the AB-PAS–stained slides. Image registration was used to assign annotations from AB-PAS images to Ki67 images. The Ki67 images were analyzed with the multiplex IHC module and number of Ki67-positive cells were determined per mm^2 of total or differentiated tumor area.
# [2] = as above; format: in vivo, mouse (NOD-SCID); conditions: NOD-SCID, mouse, plasma, oral; 20 ng/mL equivalent to 10× IC50; read-out: total plasma concentration equivalent to free IC50
# Description: as §1
# [3] = Microsomal stability; format: in vitro ADME, dog (Beagle); conditions: Dog, 1 μmol/L
# Description: Metabolic stability: liver microsomes and hepatocytes from human, mouse (CD1), rat (Sprague Dawley) and dog (Beagle) were obtained from Invitrogen. RXC004 (1 μmol/L) was incubated at 37°C with microsomes (0.5 mg · mL^−1) or hepatocytes (0.5 × 10^6 cells · mL^−1). Aliquots were removed at 0–45 minutes and RXC004 concentrations determined by LC/MS-MS analysis. Half-life (T1/2) and intrinsic clearance (CLint) were calculated as described in ref. [18].
# [4] = In vivo pharmacokinetics; set-up: species or system rat (male Sprague Dawley); conditions: rat
# Description: In vivo pharmacokinetics: RXC004 was dosed to male Sprague Dawley rats, male CD1 mice or dog (beagle) by intravenous and oral routes. Bioanalysis of blood and plasma samples was performed by LC/MS-MS using a Waters TQS or TQMS mass spectrometer. Pharmacokinetic information was derived using WinNonlin software (Certara).
# [5] = Aqueous solubility; format: physicochemical; conditions: pH 7.4 buffer, 25°C
# Description: Following filtration under positive pressure, compound concentration in solution was assessed by high-performance liquid chromatography coupled to an ultraviolet detector (LC-UV).
# [6] = target: T1, Porcupine (Homo sapiens, UniProt Q9H237); assay: Wnt palmitoylation assay (GFP-Wnt1-Fc in HEK293T cells); format: cell-based; conditions: 100 nmol/L; GFP-Wnt1-Fc in HEK293T cells with alkyne palmitate
# T1 construct: HEK293T cells were transfected with GFP-Wnt1-Fc constructs; endogenous in cells; host or cells: HEK293T
# T1 sequence (Q9H237 whole entry): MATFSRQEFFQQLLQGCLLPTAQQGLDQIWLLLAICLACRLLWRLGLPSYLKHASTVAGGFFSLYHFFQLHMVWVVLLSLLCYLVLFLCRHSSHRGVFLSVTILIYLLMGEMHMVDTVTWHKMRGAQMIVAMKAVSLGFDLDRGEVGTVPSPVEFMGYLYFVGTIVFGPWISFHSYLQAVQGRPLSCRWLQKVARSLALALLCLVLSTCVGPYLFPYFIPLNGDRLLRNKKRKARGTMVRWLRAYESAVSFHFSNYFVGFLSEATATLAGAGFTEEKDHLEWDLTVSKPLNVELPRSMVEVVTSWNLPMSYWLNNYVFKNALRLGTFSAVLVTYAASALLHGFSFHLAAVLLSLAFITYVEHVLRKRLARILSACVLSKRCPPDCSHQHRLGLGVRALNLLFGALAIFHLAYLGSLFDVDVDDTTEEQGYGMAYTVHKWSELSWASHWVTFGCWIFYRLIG
# Description: Palmitoylation of Wnt was performed by the Burris group, under a fee-for-service agreement, and was detected as described in Galli and colleagues ([16]). Briefly, HEK293T cells were transfected with GFP-Wnt1-Fc constructs, followed by overnight incubation with alkyne palmitate (Alk-C16) in the presence of DMSO or 100 nmol/L RXC004. Cells were lysed and A/G agarose beads used to pull down GFP-Wnt1-Fc, which was then subjected to click chemistry to covalently attach biotin azide to any attached alkyne palmitate. Following SDS-PAGE and Western blotting, palmitoylation of Wnt was detected using Streptavidin IR 800 dye. GFP detection served as a transfection and/or loading control.
# [7] = tested on: Wnt5a secretion from L-Wnt5a cells; assay: Wnt secretion assay; format: cell-based; conditions: 300 nmol/L, 48 hours
# Description: L-Wnt5a cells (L cells overexpressing Wnt5a; ATCC CRL-2814) were treated with RXC004 (300 nmol/L) or DMSO for 48 hours. Wnt5a secreted into media was detected by Western blotting using anti-Wnt5a antibody (Cell Signaling Technology #2530).
# [8] = tested on: MDR1-MDCKII cells; assay: Permeability in MDR1-MDCKII cells; format: in vitro ADME; conditions: MDR1-MDCKII cells
# Description: (§2) Permeability of RXC004 was assessed in MDR1-MDCKII (Netherlands Cancer Institute) and Caco-2 cells (Merck Life Sciences). RXC004 (10 μmol/L) was added to either apical or basolateral chamber for 2 hours at 37°C, then an aliquot from the opposite side of the monolayer was removed and quantified by LC/MS-MS. Apparent permeability (Papp) was calculated according to standard practice ([20]).
# [9] = tested on: MDR1; assay: Permeability in MDR1-MDCKII cells; format: in vitro ADME; conditions: dog, MDCK-MDR1, 10 μmol/L, 2 hours
# Description: as §2
# [10] = target: T2, CYP3A4 (Homo sapiens, UniProt P08684); assay: Cytochrome P450 inhibition in human liver microsomes; format: in vitro ADME
# T2 construct: from tissue; host or cells: human liver microsomes
# T2 sequence (P08684 whole entry): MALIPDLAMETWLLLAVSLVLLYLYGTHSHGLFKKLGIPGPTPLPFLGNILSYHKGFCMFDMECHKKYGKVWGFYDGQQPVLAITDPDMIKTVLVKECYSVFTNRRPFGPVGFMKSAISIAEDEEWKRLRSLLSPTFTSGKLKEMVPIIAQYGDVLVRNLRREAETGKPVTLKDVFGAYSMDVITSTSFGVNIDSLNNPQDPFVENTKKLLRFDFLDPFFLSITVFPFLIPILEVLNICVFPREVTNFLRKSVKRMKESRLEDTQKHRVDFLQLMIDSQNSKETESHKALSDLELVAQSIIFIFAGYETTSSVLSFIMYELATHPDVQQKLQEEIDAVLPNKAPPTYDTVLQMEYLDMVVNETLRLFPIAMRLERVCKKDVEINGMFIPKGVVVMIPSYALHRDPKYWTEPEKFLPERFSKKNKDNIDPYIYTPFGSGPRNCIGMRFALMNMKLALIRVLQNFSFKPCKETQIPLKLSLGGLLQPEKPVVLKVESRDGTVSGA
# Description: (§3) Cytochrome P450 (CYP) assays were performed using human liver microsomes incubated with P450 specific substrates as recommended by the FDA ([19]) at a concentration equivalent to Km in the presence of 0.03–30 μmol/L RXC004, or solvent control. Concentration of the metabolites was analyzed by LC/MS-MS.
# [11] = target: T3, CYP2C19 (Homo sapiens, UniProt P33261); assay: as above; format: in vitro ADME
# T3 construct: from tissue; host or cells: human liver microsomes
# T3 sequence (P33261 whole entry): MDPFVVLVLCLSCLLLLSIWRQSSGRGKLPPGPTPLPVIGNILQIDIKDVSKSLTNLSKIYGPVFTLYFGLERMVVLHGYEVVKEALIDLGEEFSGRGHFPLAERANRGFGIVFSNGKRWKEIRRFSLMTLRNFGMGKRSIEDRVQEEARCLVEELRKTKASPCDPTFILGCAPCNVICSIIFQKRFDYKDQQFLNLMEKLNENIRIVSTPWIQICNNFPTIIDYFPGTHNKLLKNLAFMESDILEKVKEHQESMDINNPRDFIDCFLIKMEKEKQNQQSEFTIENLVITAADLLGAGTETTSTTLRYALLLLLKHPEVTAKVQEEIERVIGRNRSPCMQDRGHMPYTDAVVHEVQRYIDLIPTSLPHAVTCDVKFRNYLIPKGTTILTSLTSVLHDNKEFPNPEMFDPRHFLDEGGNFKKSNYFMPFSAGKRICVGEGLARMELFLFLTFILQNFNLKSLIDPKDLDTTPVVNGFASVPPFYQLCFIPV
# Description: as §3
# [12] = target: T4, CYP2C9 (Homo sapiens, UniProt P11712); assay: as above; format: in vitro ADME
# T4 construct: from tissue; host or cells: human liver microsomes
# T4 sequence (P11712 whole entry): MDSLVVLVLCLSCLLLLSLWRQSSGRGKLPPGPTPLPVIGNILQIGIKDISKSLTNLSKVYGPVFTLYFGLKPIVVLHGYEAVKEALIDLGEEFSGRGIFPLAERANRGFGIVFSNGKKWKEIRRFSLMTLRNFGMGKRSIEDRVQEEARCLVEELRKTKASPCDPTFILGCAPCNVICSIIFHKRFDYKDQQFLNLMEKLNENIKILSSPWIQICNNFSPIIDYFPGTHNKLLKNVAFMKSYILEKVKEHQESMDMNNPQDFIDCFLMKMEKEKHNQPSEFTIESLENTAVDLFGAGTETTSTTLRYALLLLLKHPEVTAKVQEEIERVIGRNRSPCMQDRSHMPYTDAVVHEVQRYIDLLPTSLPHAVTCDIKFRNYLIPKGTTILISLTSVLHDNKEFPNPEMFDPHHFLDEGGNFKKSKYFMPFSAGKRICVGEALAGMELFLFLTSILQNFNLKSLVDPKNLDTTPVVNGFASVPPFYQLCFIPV
# Description: as §3
# [13] = target: T5, CYP1A2 (Homo sapiens, UniProt P05177); assay: as above; format: in vitro ADME
# T5 construct: from tissue; host or cells: human liver microsomes
# T5 sequence (P05177 whole entry): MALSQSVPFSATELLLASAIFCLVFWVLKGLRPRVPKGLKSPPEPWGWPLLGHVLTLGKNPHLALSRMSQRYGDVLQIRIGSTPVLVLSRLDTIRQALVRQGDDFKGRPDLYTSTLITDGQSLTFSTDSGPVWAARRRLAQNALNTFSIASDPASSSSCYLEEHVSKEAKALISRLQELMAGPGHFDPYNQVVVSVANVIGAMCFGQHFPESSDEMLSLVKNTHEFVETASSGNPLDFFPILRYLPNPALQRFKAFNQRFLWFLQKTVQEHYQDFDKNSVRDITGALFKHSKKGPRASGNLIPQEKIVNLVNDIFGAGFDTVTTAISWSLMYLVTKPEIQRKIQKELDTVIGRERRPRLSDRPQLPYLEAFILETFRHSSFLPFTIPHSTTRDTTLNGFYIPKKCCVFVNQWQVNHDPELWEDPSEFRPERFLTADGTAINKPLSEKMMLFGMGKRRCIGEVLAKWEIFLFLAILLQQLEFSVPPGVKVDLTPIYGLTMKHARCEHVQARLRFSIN
# Description: as §3
# [14] = target: T6, CYP2D6 (Homo sapiens, UniProt P10635); assay: as above; format: in vitro ADME
# T6 construct: from tissue; host or cells: human liver microsomes
# T6 sequence (P10635 whole entry): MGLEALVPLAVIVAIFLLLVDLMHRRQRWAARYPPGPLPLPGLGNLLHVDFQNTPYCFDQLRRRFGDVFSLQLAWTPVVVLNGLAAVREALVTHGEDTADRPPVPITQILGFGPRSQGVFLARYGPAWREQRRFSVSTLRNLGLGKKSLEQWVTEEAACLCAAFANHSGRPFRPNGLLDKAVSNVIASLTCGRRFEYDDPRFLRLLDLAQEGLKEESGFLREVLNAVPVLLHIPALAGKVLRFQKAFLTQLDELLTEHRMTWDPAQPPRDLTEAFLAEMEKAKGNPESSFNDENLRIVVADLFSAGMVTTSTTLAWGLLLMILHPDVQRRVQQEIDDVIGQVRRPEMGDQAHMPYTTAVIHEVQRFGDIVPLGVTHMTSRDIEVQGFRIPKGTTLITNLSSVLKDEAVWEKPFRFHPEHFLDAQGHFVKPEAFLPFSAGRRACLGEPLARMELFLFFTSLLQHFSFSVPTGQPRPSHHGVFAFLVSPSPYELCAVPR
# Description: as §3
# [15] = male, Sprague Dawley, in vivo, po, 5 mg/kg p.o.
structure (smiles),measurement,setting,value
"Cc1c(-c2ccnc(C(F)(F)F)c2)ncn1CC(=O)Nc1ccc(-c2cnccn2)cn1 [RXC004, 2-[5-methyl-4-[2-(trifluoromethyl)-4-pyridyl]imidazol-1-yl]-N-(5-pyrazin-2-yl-2-pyridyl)acetamide]",c-Myc gene expression in tumor,"[1]; 1.5 or 5 mg/kg once daily, 7 days",Inhibition of c-Myc gene expression in tumor
same,tumor differentiation and mucin levels (Alcian-blue/PAS),"[1]; intermediate effects at 1.5 mg/kg once daily, stronger at 5 mg/kg once daily",increased tumor differentiation and increased mucin levels
same,dose proportionality of levels in plasma and tumor,"[1]; oral 1.5 or 5 mg/kg once daily, 7 days",good dose proportionality
same,Ki67-positive cells in tumor,"[1]; total tumor area, more significantly in differentiated tumor",Ki67-positive cells were reduced
same,IC50,[2],2 ng/mL
same,Microsomal stability: CLint,[3],31.6 μL minute^−^1 · mg^−^1
same,clearance,"[4]; male, Sprague Dawley, in vivo, intravenous, 2 mg/kg, dose i.v./p.o. 2/5 mg/kg",0.348 L/h/kg
same,Vd,"[4]; male, Sprague Dawley, in vivo, intravenous, 2 mg/kg, dose i.v./p.o. 2/5 mg/kg, read-out: Vss",0.64 L/kg
same,AUC(0-inf),[4]; [15],10.5 µM·h
same,Cmax,[4]; [15],3.6 µM
same,concentration at 24 h,"[4]; male, Sprague Dawley, in vivo, po, 5 mg/kg p.o., read-out: C24h (p.o.)",0.009 µM
same,half-life,"[4]; male, Sprague Dawley, in vivo, dose i.v./p.o. 2/5 mg/kg, read-out: T½ (converted)",2.5 h
same,F (p.o.),[4]; dose i.v./p.o. 2/5 mg/kg,31%
same,solubility at 24 h,[5],56 µM
same,palmitoylation of Wnt,[6],inhibited palmitoylation of Wnt
same,Wnt5a secretion into the media,[7],inhibited Wnt5a secretion
same,efflux,[8],some evidence of efflux in MDR1-MDCKII cells
same,"Papp A→B at 2 h, 10 μmol/L","[9]; apical to basolateral, read-out: MDCK PappA-B",150 nm/s
same,"Papp B→A at 2 h, 10 μmol/L","[9]; basolateral to apical, read-out: MDCK PappB-A",519 nm/s
same,IC50,[10],> 25 µM
same,IC50,[11],> 25 µM
same,IC50,[12],> 25 µM
same,IC50,[13],> 25 µM
same,IC50,[14],> 25 µM
